Measurements reported in ChEMBL document CHEMBL1128428, “Inhibition of matrix metalloproteinases by hydroxamates containing heteroatom-based modifications of the P1' group” (J Med Chem, 1995).

Legend:
Interstitial collagenase = target: T1, Interstitial collagenase (Homo sapiens, UniProt P03956)
T1 sequence (P03956 whole entry): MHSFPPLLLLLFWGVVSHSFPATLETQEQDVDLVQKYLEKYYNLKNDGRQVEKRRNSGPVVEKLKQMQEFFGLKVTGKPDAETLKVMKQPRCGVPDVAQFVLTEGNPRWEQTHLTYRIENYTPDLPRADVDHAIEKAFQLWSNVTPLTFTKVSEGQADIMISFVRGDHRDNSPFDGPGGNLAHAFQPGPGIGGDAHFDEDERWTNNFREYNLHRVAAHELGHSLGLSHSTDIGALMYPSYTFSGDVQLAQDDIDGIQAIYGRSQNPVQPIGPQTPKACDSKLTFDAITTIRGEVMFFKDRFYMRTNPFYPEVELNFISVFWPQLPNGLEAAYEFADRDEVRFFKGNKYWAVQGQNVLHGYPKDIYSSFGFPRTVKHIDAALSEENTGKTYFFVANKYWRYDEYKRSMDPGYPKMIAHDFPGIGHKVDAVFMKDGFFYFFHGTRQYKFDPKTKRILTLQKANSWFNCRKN

Neutrophil collagenase = Neutrophil collagenase (Homo sapiens, UniProt P22894)
Neutrophil collagenase, sequence (P22894 whole entry): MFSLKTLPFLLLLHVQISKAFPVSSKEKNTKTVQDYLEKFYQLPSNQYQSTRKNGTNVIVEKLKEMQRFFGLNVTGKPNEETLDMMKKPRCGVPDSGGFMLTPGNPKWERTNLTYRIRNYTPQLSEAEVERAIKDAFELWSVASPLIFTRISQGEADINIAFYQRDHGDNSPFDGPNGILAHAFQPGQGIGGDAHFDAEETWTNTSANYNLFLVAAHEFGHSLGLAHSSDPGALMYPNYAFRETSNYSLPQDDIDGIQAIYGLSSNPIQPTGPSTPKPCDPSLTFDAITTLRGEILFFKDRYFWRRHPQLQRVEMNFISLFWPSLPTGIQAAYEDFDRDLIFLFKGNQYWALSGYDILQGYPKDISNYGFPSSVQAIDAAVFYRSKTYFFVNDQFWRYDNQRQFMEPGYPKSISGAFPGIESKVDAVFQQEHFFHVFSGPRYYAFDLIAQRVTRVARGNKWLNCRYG

SMILES: CC(C)(C)[C@H](NC(=O)[C@H](CCCCOc1ccccc1)CC(=O)NO)C(=O)NCCC(=O)O
- Ki (Interstitial collagenase): 140 nM

SMILES: CNC(=O)[C@@H](NC(=O)[C@H](CCCCOc1ccc(C(C)(C)C)cc1)CC(=O)NO)C(C)(C)C
- Ki (Interstitial collagenase): 350 nM

SMILES: CCCC(=O)NCCCC[C@H](CC(=O)NO)C(=O)N[C@@H](Cc1ccccc1)C(=O)NC
- Ki (Neutrophil collagenase): 12 nM

SMILES: CNC(=O)[C@@H](NC(=O)[C@H](CCCCOc1ccc(Cl)c(Cl)c1)CC(=O)NO)C(C)(C)C
- Ki (Interstitial collagenase): 95 nM

SMILES: CNC(=O)[C@@H](NC(=O)[C@H](CCCCOc1ccccc1)CC(=O)NO)C(C)(C)C
- Ki (Interstitial collagenase): 3 nM

SMILES: CC(C)(C)[C@H](NC(=O)[C@H](CCCCOc1ccc(Cl)cc1)CC(=O)NO)C(=O)NCCCN1CCOCC1
- Ki (Interstitial collagenase): 10 nM

SMILES: CNC(=O)[C@@H](NC(=O)[C@H](CCCCOc1ccc(F)cc1)CC(=O)NO)C(C)(C)C
- Ki (Interstitial collagenase): 11 nM

SMILES: CNC(=O)[C@H](Cc1ccccc1)NC(=O)[C@H](CCCCOc1ccccc1)CC(=O)NO
- Ki (Neutrophil collagenase): < 2 nM

SMILES: CCCCCc1ccc(OCCCC[C@H](CC(=O)NO)C(=O)N[C@H](C(=O)NC)C(C)(C)C)cc1
- Ki (Interstitial collagenase): 1900 nM

SMILES: CC(C)(C)[C@H](NC(=O)[C@H](CCCCOc1ccc(Cl)cc1)CC(=O)NO)C(=O)NCCc1ccccc1
- Ki (Interstitial collagenase): 580 nM

SMILES: CNC(=O)[C@H](Cc1ccccc1)NC(=O)[C@H](CCCC(=O)NCc1ccccc1)CC(=O)NO
- Ki (Neutrophil collagenase): 30 nM
- Ki (Interstitial collagenase): 9600 nM

SMILES: CC(C)(C)[C@H](NC(=O)[C@H](CCCCOc1ccccc1)CC(=O)NO)C(=O)NCCCC(=O)O
- Ki (Interstitial collagenase): 62 nM

SMILES: CNC(=O)[C@@H](NC(=O)[C@H](CCCCOc1cccc(Cl)c1)CC(=O)NO)C(C)(C)C
- Ki (Interstitial collagenase): 143 nM

SMILES: CNC(=O)[C@@H](NC(=O)[C@H](CCCCOc1ccc(OC)cc1)CC(=O)NO)C(C)(C)C
- Ki (Interstitial collagenase): < 1 nM

SMILES: CNC(=O)[C@H](Cc1ccccc1)NC(=O)[C@H](CCCCCOc1ccccc1)CC(=O)NO
- Ki (Neutrophil collagenase): < 2 nM

SMILES: CC(C)(C)[C@H](NC(=O)[C@H](CCCCOc1ccc(Cl)cc1)CC(=O)NO)C(=O)NCCc1ccc(S(N)(=O)=O)cc1
- Ki (Interstitial collagenase): 61 nM

SMILES: CCCNC(=O)CCC[C@H](CC(=O)NO)C(=O)N[C@@H](Cc1ccccc1)C(=O)NC
- Ki (Neutrophil collagenase): 2 nM

SMILES: CNC(=O)[C@H](Cc1ccccc1)NC(=O)[C@H](CCCCCOCc1ccccc1)CC(=O)NO
- Ki (Neutrophil collagenase): 2 nM

SMILES: CNC(=O)[C@@H](NC(=O)[C@H](CCCCOc1cccc(C)c1)CC(=O)NO)C(C)(C)C
- Ki (Interstitial collagenase): 16 nM

SMILES: CNC(=O)[C@H](Cc1ccccc1)NC(=O)[C@H](CCCCO)CC(=O)NO
- Ki (Interstitial collagenase): 64 nM

SMILES: CNC(=O)[C@H](Cc1ccccc1)NC(=O)[C@H](CCCC(=O)NCCc1ccccc1)CC(=O)NO
- Ki (Neutrophil collagenase): 32 nM
- Ki (Interstitial collagenase): 1300 nM

SMILES: CNC(=O)[C@H](Cc1ccccc1)NC(=O)[C@H](CCCCCO)CC(=O)NO
- Ki (Neutrophil collagenase): 4 nM
- Ki (Interstitial collagenase): 31 nM

SMILES: CC(C)(C)[C@H](NC(=O)[C@H](CCCCOc1ccc(Cl)cc1)CC(=O)NO)C(=O)NCCc1ccccn1
- Ki (Interstitial collagenase): 80 nM

SMILES: CCCc1ccc(OCCCC[C@H](CC(=O)NO)C(=O)N[C@H](C(=O)NC)C(C)(C)C)cc1
- Ki (Interstitial collagenase): 170 nM

SMILES: CC(C)(C)[C@H](NC(=O)[C@H](CCCCOc1ccc(Cl)cc1)CC(=O)NO)C(=O)NCCN1CCCC1
- Ki (Interstitial collagenase): 80 nM

SMILES: CNC(=O)[C@@H](NC(=O)[C@H](CCCCOc1ccc(C(C)C)cc1)CC(=O)NO)C(C)(C)C
- Ki (Interstitial collagenase): 30 nM

SMILES: CNC(=O)[C@@H](NC(=O)[C@H](CCCCOc1cccc(OC)c1)CC(=O)NO)C(C)(C)C
- Ki (Interstitial collagenase): 72 nM
